Measured values: PubChem BioAssay (NCI)
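Five compound concentrations were applied to cells in 96-well plates for 48 hours; endpoints were derived by simple linear interpolation of the resulting dose-response curve. GI50 = concentration required for 50% inhibition of growth. TGI denotes the concentration required for complete inhibition of growth.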

Tests used:
Assay in all cases: NCI anticancer screen, dose series, 48 h
HOP-62 NSCLC = test system: HOP-62 NSCLC
ACHN renal = test system: ACHN renal
786-0 renal = test system: 786-0 renal
MCF7 breast = test system: MCF7 breast
T-47D breast = test system: T-47D breast
NCI/ADR-RES ovarian = test system: NCI/ADR-RES ovarian
HL-60(TB) leukemia = test system: HL-60(TB) leukemia
K-562 leukemia = test system: K-562 leukemia
UACC-62 melanoma = test system: UACC-62 melanoma
HOP-92 NSCLC = test system: HOP-92 NSCLC
SK-OV-3 ovarian = test system: SK-OV-3 ovarian
MDA-MB-435 = test system: MDA-MB-435
HT29 colon = test system: HT29 colon
OVCAR-5 ovarian = test system: OVCAR-5 ovarian
CCRF-CEM leukemia = test system: CCRF-CEM leukemia
NCI-H226 lung = test system: NCI-H226 lung
MDA-MB-231 breast = test system: MDA-MB-231 breast
MALME-3M melanoma = test system: MALME-3M melanoma
TK-10 renal = test system: TK-10 renal
CAKI-1 renal = test system: CAKI-1 renal
SF-539 CNS = test system: SF-539 CNS
NCI-H522 lung = test system: NCI-H522 lung
A549 NSCLC = test system: A549 NSCLC
HS 578T breast = test system: HS 578T breast
BT-549 breast = test system: BT-549 breast
SK-MEL-28 melanoma = test system: SK-MEL-28 melanoma
UACC-257 melanoma = test system: UACC-257 melanoma
NCI-H23 lung = test system: NCI-H23 lung
HCT-15 colon = test system: HCT-15 colon
SN12C renal = test system: SN12C renal
SNB-19 CNS = test system: SNB-19 CNS
DU-145 prostate = test system: DU-145 prostate
NCI-H460 lung = test system: NCI-H460 lung
IGROV1 ovarian = test system: IGROV1 ovarian
SK-MEL-5 melanoma = test system: SK-MEL-5 melanoma
RPMI-8226 leukemia = test system: RPMI-8226 leukemia
SF-295 CNS = test system: SF-295 CNS
UO-31 renal = test system: UO-31 renal
SR leukemia = test system: SR leukemia
EKVX NSCLC = test system: EKVX NSCLC
COLO 205 colon = test system: COLO 205 colon
LOX IMVI melanoma = test system: LOX IMVI melanoma
KM12 colon = test system: KM12 colon
OVCAR-8 ovarian = test system: OVCAR-8 ovarian
U251 CNS = test system: U251 CNS
OVCAR-3 ovarian = test system: OVCAR-3 ovarian
SW-620 colon = test system: SW-620 colon
SK-MEL-2 melanoma = test system: SK-MEL-2 melanoma
SNB-75 CNS = test system: SNB-75 CNS
M14 melanoma = test system: M14 melanoma
HCT-116 colon = test system: HCT-116 colon
OVCAR-4 ovarian = test system: OVCAR-4 ovarian
RXF 393 renal = test system: RXF 393 renal
PC-3 prostate = test system: PC-3 prostate
A498 renal = test system: A498 renal
HCC-2998 colon = test system: HCC-2998 colon
MOLT-4 leukemia = test system: MOLT-4 leukemia
SF-268 CNS = test system: SF-268 CNS

COc1cc(C(=O)c2c(-c3ccccc3)oc3c(OC)cccc23)cc(OC)c1O
GI50 (HOP-62 NSCLC): 0.641 µM
TGI (HOP-62 NSCLC): > 100 µM
GI50 (ACHN renal): 0.664 µM
TGI (ACHN renal): > 100 µM
GI50 (786-0 renal): 0.63 µM
TGI (786-0 renal): 14.3 µM
GI50 (MCF7 breast): 0.351 µM
TGI (MCF7 breast): > 100 µM
GI50 (T-47D breast): 1.2 µM
TGI (T-47D breast): > 100 µM
GI50 (NCI/ADR-RES ovarian): 0.454 µM
TGI (NCI/ADR-RES ovarian): > 100 µM
GI50 (HL-60(TB) leukemia): 0.284 µM
TGI (HL-60(TB) leukemia): 1.02 µM
GI50 (K-562 leukemia): 0.328 µM
TGI (K-562 leukemia): > 100 µM
GI50 (UACC-62 melanoma): 0.583 µM
TGI (UACC-62 melanoma): > 100 µM
GI50 (HOP-92 NSCLC): 0.276 µM
TGI (HOP-92 NSCLC): 2.25 µM
GI50 (SK-OV-3 ovarian): 0.765 µM
TGI (SK-OV-3 ovarian): > 100 µM
GI50 (MDA-MB-435): 0.162 µM
TGI (MDA-MB-435): 0.459 µM
GI50 (HT29 colon): 3.15 µM
TGI (HT29 colon): > 33.7 µM
GI50 (OVCAR-5 ovarian): 3.22 µM
TGI (OVCAR-5 ovarian): > 100 µM
GI50 (CCRF-CEM leukemia): 0.414 µM
TGI (CCRF-CEM leukemia): > 100 µM
GI50 (NCI-H226 lung): 3.1 µM
TGI (NCI-H226 lung): > 100 µM
GI50 (MDA-MB-231 breast): 1.5 µM
TGI (MDA-MB-231 breast): 16.1 µM
GI50 (MALME-3M melanoma): 0.509 µM
TGI (MALME-3M melanoma): > 100 µM
GI50 (TK-10 renal): 15 µM
TGI (TK-10 renal): > 81.9 µM
GI50 (CAKI-1 renal): 0.404 µM
TGI (CAKI-1 renal): 26.7 µM
GI50 (SF-539 CNS): 0.311 µM
TGI (SF-539 CNS): 2.64 µM
GI50 (NCI-H522 lung): 0.269 µM
TGI (NCI-H522 lung): 5.18 µM
GI50 (A549 NSCLC): 0.751 µM
TGI (A549 NSCLC): > 100 µM
GI50 (HS 578T breast): 0.405 µM
GI50 (BT-549 breast): 1.19 µM
TGI (BT-549 breast): 7.31 µM
GI50 (SK-MEL-28 melanoma): 4.09 µM
TGI (SK-MEL-28 melanoma): > 100 µM
GI50 (UACC-257 melanoma): 63.5 µM
TGI (UACC-257 melanoma): > 100 µM
GI50 (NCI-H23 lung): 0.864 µM
TGI (NCI-H23 lung): > 100 µM
GI50 (HCT-15 colon): 0.455 µM
TGI (HCT-15 colon): > 100 µM
GI50 (SN12C renal): 1.46 µM
TGI (SN12C renal): > 100 µM
GI50 (SNB-19 CNS): 1.76 µM
TGI (SNB-19 CNS): > 100 µM
GI50 (DU-145 prostate): 0.554 µM
TGI (DU-145 prostate): > 100 µM
GI50 (NCI-H460 lung): 0.401 µM
TGI (NCI-H460 lung): > 22.1 µM
GI50 (IGROV1 ovarian): 0.654 µM
TGI (IGROV1 ovarian): > 100 µM
GI50 (SK-MEL-5 melanoma): 0.651 µM
TGI (SK-MEL-5 melanoma): 8.62 µM
GI50 (RPMI-8226 leukemia): 0.403 µM
TGI (RPMI-8226 leukemia): 5.75 µM
GI50 (SF-295 CNS): 0.569 µM
TGI (SF-295 CNS): > 21.5 µM
GI50 (UO-31 renal): 0.648 µM
TGI (UO-31 renal): > 100 µM
GI50 (SR leukemia): 0.339 µM
TGI (SR leukemia): 53 µM
GI50 (EKVX NSCLC): 0.876 µM
TGI (EKVX NSCLC): > 100 µM
GI50 (COLO 205 colon): 2.05 µM
TGI (COLO 205 colon): 5.23 µM
GI50 (LOX IMVI melanoma): 0.608 µM
TGI (LOX IMVI melanoma): > 100 µM
GI50 (KM12 colon): 0.45 µM
TGI (KM12 colon): > 51.2 µM
GI50 (OVCAR-8 ovarian): 0.631 µM
TGI (OVCAR-8 ovarian): > 100 µM
GI50 (U251 CNS): 0.507 µM
TGI (U251 CNS): > 100 µM
GI50 (OVCAR-3 ovarian): 0.302 µM
TGI (OVCAR-3 ovarian): 1.66 µM
GI50 (SW-620 colon): 0.454 µM
TGI (SW-620 colon): > 100 µM
GI50 (SK-MEL-2 melanoma): 2.28 µM
TGI (SK-MEL-2 melanoma): > 100 µM
GI50 (SNB-75 CNS): 0.184 µM
TGI (SNB-75 CNS): 0.605 µM
GI50 (M14 melanoma): 0.351 µM
TGI (M14 melanoma): > 100 µM
GI50 (HCT-116 colon): 0.563 µM
TGI (HCT-116 colon): > 100 µM
GI50 (OVCAR-4 ovarian): 2.82 µM
TGI (OVCAR-4 ovarian): > 100 µM
GI50 (RXF 393 renal): 0.313 µM
TGI (RXF 393 renal): 2 µM
GI50 (PC-3 prostate): 0.45 µM
TGI (PC-3 prostate): > 37.2 µM
GI50 (A498 renal): 0.378 µM
TGI (A498 renal): 3.53 µM
GI50 (HCC-2998 colon): 1.96 µM
TGI (HCC-2998 colon): > 100 µM
GI50 (MOLT-4 leukemia): 0.605 µM
TGI (MOLT-4 leukemia): > 100 µM
GI50 (SF-268 CNS): 1.04 µM
TGI (SF-268 CNS): > 100 µM

O=C(ON=c1c2ccccc2ccc2ccccc12)c1ccccc1
TGI (HOP-62 NSCLC): 59 µM
TGI (ACHN renal): > 100 µM
TGI (786-0 renal): > 62.4 µM
TGI (MCF7 breast): 45.5 µM
TGI (T-47D breast): 91.4 µM
TGI (NCI/ADR-RES ovarian): 56.3 µM
TGI (HL-60(TB) leukemia): 29.5 µM
TGI (K-562 leukemia): > 58.1 µM
TGI (UACC-62 melanoma): 30.5 µM
TGI (HOP-92 NSCLC): 67.5 µM
TGI (SK-OV-3 ovarian): > 91.1 µM
TGI (MDA-MB-435): 42.7 µM
TGI (HT29 colon): > 74.2 µM
TGI (OVCAR-5 ovarian): > 100 µM
TGI (CCRF-CEM leukemia): > 76 µM
TGI (NCI-H226 lung): 57.9 µM
TGI (MDA-MB-231 breast): > 65.2 µM
TGI (MALME-3M melanoma): 50.5 µM
TGI (TK-10 renal): > 100 µM
TGI (CAKI-1 renal): 79 µM
TGI (SF-539 CNS): 32.8 µM
TGI (NCI-H522 lung): 47.3 µM
TGI (A549 NSCLC): > 92.7 µM
TGI (HS 578T breast): 59.9 µM
TGI (BT-549 breast): 64.2 µM
TGI (SK-MEL-28 melanoma): 56.3 µM
TGI (UACC-257 melanoma): 93.4 µM
TGI (NCI-H23 lung): > 100 µM
TGI (HCT-15 colon): > 95.9 µM
TGI (SN12C renal): > 68.9 µM
TGI (SNB-19 CNS): > 84.1 µM
TGI (DU-145 prostate): > 100 µM
TGI (NCI-H460 lung): > 80.4 µM
TGI (IGROV1 ovarian): > 67.3 µM
TGI (SK-MEL-5 melanoma): 29.8 µM
TGI (RPMI-8226 leukemia): 73.5 µM
TGI (SF-295 CNS): > 73.4 µM
TGI (UO-31 renal): 57.4 µM
TGI (SR leukemia): 32.4 µM
TGI (EKVX NSCLC): 96.9 µM
TGI (COLO 205 colon): 35.7 µM
TGI (LOX IMVI melanoma): > 62.1 µM
TGI (KM12 colon): 35.6 µM
TGI (OVCAR-8 ovarian): > 67.7 µM
TGI (U251 CNS): 39 µM
TGI (OVCAR-3 ovarian): 62.1 µM
TGI (SW-620 colon): 43.3 µM
TGI (SK-MEL-2 melanoma): > 58 µM
TGI (SNB-75 CNS): 99.7 µM
TGI (M14 melanoma): 33.5 µM
TGI (HCT-116 colon): 34.1 µM
TGI (OVCAR-4 ovarian): > 89.1 µM
TGI (RXF 393 renal): 23.6 µM
TGI (PC-3 prostate): > 93 µM
TGI (A498 renal): 50.3 µM
TGI (HCC-2998 colon): > 87.7 µM
TGI (MOLT-4 leukemia): 16.2 µM
TGI (SF-268 CNS): > 86 µM
